Melting point data for one compound are collected here from patent US7501383B2, “Substituted [1,2,4]triazolo[1,5-a]pyrimidines and their use for controlling harmful fungi” (BASF Aktiengesellschaft, priority 2004, dated 2009).

What is called melting point is the temperature, or range, at which the solid turns liquid. As for `CCCCCCc1nc2nnnc-2c(N)n1C` [I-2, 5-hexyl-6-methyl-7-aminotriazolopyrimidine], the melting point fell in the range of 193 to 194 °C.
